In ChEMBL document CHEMBL1129124, “Thromboxane modulating agents. 2. Thromboxane receptor antagonists derived from the thromboxane synthase inhibitor dazmegrel” (Bioorg Med Chem Lett, 1996):

Assays:
[1] = biological target: T1, Thromboxane-A synthase (Homo sapiens, UniProt P24557); assay: Inhibitory activity against human platelet microsomal TXA2 synthase
T1 sequence (P24557 whole entry): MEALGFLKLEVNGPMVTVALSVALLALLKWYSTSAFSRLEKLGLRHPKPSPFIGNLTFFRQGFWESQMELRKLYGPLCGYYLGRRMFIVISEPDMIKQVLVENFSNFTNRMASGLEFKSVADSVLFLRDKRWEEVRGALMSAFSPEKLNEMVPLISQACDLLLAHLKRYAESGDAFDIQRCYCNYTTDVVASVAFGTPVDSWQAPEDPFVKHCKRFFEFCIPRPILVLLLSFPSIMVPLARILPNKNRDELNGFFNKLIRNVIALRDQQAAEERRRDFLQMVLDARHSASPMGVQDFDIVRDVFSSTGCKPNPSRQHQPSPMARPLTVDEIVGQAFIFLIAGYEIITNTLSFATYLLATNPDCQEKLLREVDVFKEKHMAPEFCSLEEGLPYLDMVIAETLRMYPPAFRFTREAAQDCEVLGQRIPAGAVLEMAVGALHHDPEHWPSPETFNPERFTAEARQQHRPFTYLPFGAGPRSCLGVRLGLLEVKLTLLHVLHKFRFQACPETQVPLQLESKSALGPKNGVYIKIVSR

[2] = biological target: T2, Thromboxane A2 receptor (Rattus norvegicus, UniProt P34978); assay: Compound was tested for TXA2 receptor antagonism by measuring its ability to inhibit contraction of rat aorta induced by the stable TXA2 agonist U-46,619 at 1 umol; type: functional, tissue-based; details: read-out: pA2 (converted)
T2 sequence (P34978 whole entry): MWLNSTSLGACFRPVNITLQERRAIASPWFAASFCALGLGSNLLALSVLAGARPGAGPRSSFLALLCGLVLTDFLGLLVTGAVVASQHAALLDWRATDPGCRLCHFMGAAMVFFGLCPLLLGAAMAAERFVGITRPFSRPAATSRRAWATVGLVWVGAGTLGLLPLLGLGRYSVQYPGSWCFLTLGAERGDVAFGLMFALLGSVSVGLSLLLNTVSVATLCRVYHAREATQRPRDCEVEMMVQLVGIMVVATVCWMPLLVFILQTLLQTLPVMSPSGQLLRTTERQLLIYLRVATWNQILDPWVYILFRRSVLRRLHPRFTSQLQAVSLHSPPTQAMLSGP

IC50 [1]	Kb [2]	SMILES
34 nM	6.31 nM	O=C(O)CCn1cc(Cn2ccnc2)c2cc(NS(=O)(=O)c3ccc(F)cc3)ccc21
–	3.72 nM	O=C(O)CCn1ccc2cc(NS(=O)(=O)c3ccc(F)cc3)ccc21
–	0.174 nM	COc1ccc(S(=O)(=O)Nc2ccc3c(c2)c(Cc2ccc(F)cc2)cn3CCC(=O)O)cc1
–	0.234 nM	O=C(O)CCn1cc(Cc2ccc(F)cc2)c2cc(NS(=O)(=O)c3ccc(Cl)cc3)ccc21
–	0.676 nM	O=C(O)CCn1cc(Cc2ccc(F)cc2)c2cc(NS(=O)(=O)c3ccccc3)ccc21
–	100 nM	O=C(O)CCCc1ccc(NS(=O)(=O)c2ccc(Cl)cc2)cc1
19 nM	3800 nM	Cc1c(Cn2ccnc2)c2cc(NS(=O)(=O)c3ccc(F)cc3)ccc2n1CCC(=O)O
–	0.269 nM	Cc1ccc(S(=O)(=O)Nc2ccc3c(c2)c(Cc2ccc(F)cc2)cn3CCC(=O)O)cc1
–	2.75 nM	O=C(O)CCn1ccc2cc(NS(=O)(=O)c3ccc(Cl)cc3)ccc21
48 nM	1.41 nM	O=C(O)CCn1cc(Cc2cccnc2)c2cc(NS(=O)(=O)c3ccc(F)cc3)ccc21
–	0.479 nM	O=C(O)CCn1cc(Cc2ccc(F)cc2)c2cc(NS(=O)(=O)c3ccc(F)cc3)ccc21
–	> 1000 nM	Cc1c(Cn2ccnc2)c2ccccc2n1CCC(=O)O [DAZMEGREL]
